Two molecules from ChEMBL document CHEMBL3217504, “Potent growth inhibitory activity of ()-platencin towards multi-drug-resistant and extensively drug-resistant Mycobacterium tuberculosis” (2013) can be followed below.

What all share (format): functional
The test system of assay [1] is Mycolicibacterium smegmatis. Briefly: Selectivity ratio of MIC for Mycobacterium smegmatis ICHO1018 overexpressing KasB to MIC for wild-type Mycobacterium smegmatis MC2 155.
For assay [2], the system named is Mycolicibacterium smegmatis. Briefly: Antimycobacterial activity against Mycobacterium smegmatis ICHO1019 overexpressing FabH.
Assay [3] relates to Mycolicibacterium smegmatis. Briefly: Antimycobacterial activity against Mycobacterium smegmatis ICHO1018 overexpressing KasB.
Assay [4] relates to Mycolicibacterium smegmatis. Briefly: Antimycobacterial activity against Mycobacterium smegmatis ICHO1017 overexpressing KasA.
The subject of assay [5] is Mycolicibacterium smegmatis. Briefly: Antimycobacterial activity against Mycobacterium smegmatis ICHO1001 harboring pMV261.
In assay [6] the test system is Mycolicibacterium smegmatis. Briefly: Antimycobacterial activity against wild-type Mycobacterium smegmatis MC2 155. The settings on record: str. MC2 155.
The subject of assay [7] is Mycobacterium tuberculosis. Briefly: Ratio of MBC99.9 to MIC for Mycobacterium tuberculosis LV54.
Assay [8] concerns Mycobacterium tuberculosis. Briefly: Ratio of MBC99.9 to MIC for Mycobacterium tuberculosis H37Rv ATCC 27294.
For assay [9], the system named is Mycobacterium tuberculosis. Briefly: Antimycobacterial activity against Mycobacterium tuberculosis LV54 by microbroth dilution method. (Broth dilution looks for growth in wells or tubes with falling amounts of substance.)
Assay [10] deals with Mycobacterium tuberculosis. Briefly: Antimycobacterial activity against Mycobacterium tuberculosis H37Rv ATCC 27294 by microbroth dilution method.
For assay [11], the system named is Mycolicibacterium smegmatis. Briefly: Antimycobacterial activity against Mycobacterium smegmatis MC2 155 under hypoxic condition after 96 hrs. The settings on record: str. MC2 155, 96 h.
For assay [12], the system named is Mycolicibacterium smegmatis. Briefly: Antimycobacterial activity against Mycobacterium smegmatis MC2 155 under aerobic condition after 48 hrs by MTT assay. As to conditions: str. MC2 155, 48 h. A general note: Tetrazolium dyes change colour on reduction, which living cells bring about.

Converted amounts (≈) assume the structure as drawn.

Broadly, the MIC is the lowest concentration that inhibits growth of the organism. Read a low MIC as greater potency. Regarding `C=C1C[C@@]23C=CC(=O)[C@@](C)(CCC(=O)Nc4c(O)ccc(C(=O)O)c4O)[C@@H]2C[C@@H]1CC3` (racemic) [PLATENCIN], the Ratio is recorded as above 17 in assay [1], above 64 in assay [7] and above 64 in assay [8]. For the same molecule, the MIC in [2] is 1 µg/mL (≈ 2.35 µM); in assay [3], above 8.5 µg/mL; in assay [4] it was 1 µg/mL (≈ 2.35 µM); in assay [5] it was 0.5 µg/mL (≈ 1.18 µM); in [6], 0.5 µg/mL (≈ 1.18 µM); in assay [9], 1 µg/mL (≈ 2.35 µM). The minimum inhibitory concentration (MIC) in [10] amounted to 2 µg/mL (≈ 4.7 µM); in assay [11] it was 0.3 µg/mL (≈ 0.705 µM); in assay [12], 0.5 µg/mL (≈ 1.18 µM).

In the case of `NNC(=O)c1ccncc1` [ISONIAZID], the MIC in assay [11] was 25 µg/mL (≈ 182 µM); in assay [12], 2.5 µg/mL (≈ 18.2 µM).
